Holding throughout (assay): NCI anticancer screen, dose series, 48 h
For assay [1], the system named is BT-549 breast.
Assay [2] deals with PC-3 prostate.
Assay [3] has as its system HCC-2998 colon.
The subject of assay [4] is MDA-MB-231 breast.
For assay [5], the system named is HCT-15 colon.
For assay [6], the system named is SK-MEL-5 melanoma.
For assay [7], the system named is DU-145 prostate.
The test system of assay [8] is HL-60(TB) leukemia.
For assay [9], the system named is CCRF-CEM leukemia.
Assay [10] deals with 786-0 renal.

SMILES strings stand for the structures. Values joined by “and” are separate entries in the source; they are usually repeats but may differ in a detail not shown here. Equal entries are not always repeated.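 Tested at 5 concentrations; 48 h exposure; 96-well plates; endpoints linearly interpolated, else capped at highest concentration. GI50: concentration for 50% inhibition of growth. TGI marks complete inhibition of growth.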 Where only a bound is given, the exact number is not on record here.

Consider `Cc1nc([C@H]2CC[C@H]3[C@@H]4CCC5=CC(=O)CC[C@]5(C)[C@H]4CC[C@]23C)cs1`, for which the GI50 in assay [1] was 1.97 µM; in [2], 3.9 µM; in assay [3] it was 6.58 µM; in assay [4] it was > 26.7 µM; in assay [5] it was 4.97 µM; in assay [6] it was 1.45 µM. For the same molecule, the GI50 in assay [7] was > 100 µM; in assay [8], 1.53 µM; in [9], 7.26 µM; in assay [10], > 100 µM. Also, the TGI in assay [1] is 8.97 µM; in assay [2], > 100 µM; in assay [3], > 100 µM; in [4], > 100 µM; in assay [5], > 100 µM; in assay [6], > 100 µM. Moreover, the TGI in assay [7], in assay [8], in assay [9] and in assay [10] was > 100 µM throughout.

`O=C(O)c1ccc(S(=O)(=O)Nc2ccc3oc4c(c3c2)C(=O)CCC4)cc1`: the GI50 in assay [1], in assay [2], in assay [3], in [4], in [5] and in [6] was > 100 µM in each case. The GI50 in assay [7], in [8], in assay [9] and in [10] was > 100 µM in each case. For the same molecule, the TGI in assay [1], in assay [2], in assay [3], in [4], in assay [5] and in assay [6] was > 100 µM throughout. The TGI in assay [7], in [8], in assay [9] and in assay [10] was > 100 µM in each case.

As to `CC(=O)N1c2ccccc2NC2=C(C(=O)N(Cc3ccccc3)C2(C)C)C1c1ccco1` (stereo not given), the GI50 was 8.66 µM in [1]; 0.687 µM in assay [2]; 0.608 µM in [3]; 0.364 µM in assay [4]; 1.2 µM in [5]; 0.871 µM in assay [6]. In addition, the GI50 is 0.115 µM in [7], 0.103 µM in assay [8], 0.258 µM in assay [9] and 1.26 µM in assay [10]. Besides, the TGI is > 25 µM in [1]; > 25 µM in assay [2]; > 7.95 µM in assay [3]; > 11.3 µM in assay [4]; > 25 µM in assay [5]; > 25 µM in assay [6]. The TGI in assay [7] is > 25 µM; in assay [8], 0.651 µM; in [9] it was > 25 µM; in assay [10] it was > 23.1 µM.

With `CN(C)C/C=C/C(=O)Nc1cc2c(Nc3ccc(F)c(Cl)c3F)ncnc2cc1OCCOC(F)F`, the GI50 is 1.57 µM in assay [1]; 1.9 µM in [2]; 1.16 µM in [3]; 0.472 µM in [4]; 0.491 µM in assay [5]; 1.6 µM in [6]. The GI50 in assay [7] was 0.191 µM; in assay [8], 1.74 µM; in assay [9], 2.47 µM; in assay [10], 0.348 µM. For the same molecule, the TGI came out at 6.86 µM in [1]; 9.09 µM in [2]; 2.68 µM in [3]; 6.53 µM in assay [4]; 2.96 µM in assay [5]; 3.39 µM in assay [6]. The TGI in assay [7] turned out to be 3.34 µM; in assay [8], 6.96 µM; in assay [9], 13.3 µM; in [10], 3.56 µM.

For `COc1ccc(C[C@@H]2NC[C@@H](O)[C@@H]2OC(C)=O)cc1`, the TGI in [1] came out at 0.145 µM; in assay [2], 0.255 µM; in [4], 0.261 µM; in [5] it was 0.19 µM; in [7], 0.0947 µM. Besides, the GI50 in assay [3] is 2.19 µM; in assay [6] it was 0.456 µM; in assay [8], 1.72 µM; in assay [9] it was 4.35 µM; in assay [10], 9 µM.

On to `Cc1nccc2c3ccc(OCc4cn(-c5ccc(Cl)cc5)nn4)cc3n(CCCc3ccccc3)c12`, for which the GI50 in assay [1] was 7.35 µM; in assay [2], 2.42 µM; in assay [3], 6.13 µM; in assay [4] it was 6.83 µM; in assay [5] it was 2.57 µM; in [6] it was 25.8 µM. In addition, the GI50 in [7] is 4.33 µM; in [8], 1.88 µM; in assay [9], 1.75 µM; in assay [10], 0.649 µM. In addition, the TGI in [1] is 19.6 µM; in [2] it was 16.6 µM; in assay [3], > 33.3 µM; in assay [4], > 33.3 µM; in [5] it was > 33.3 µM; in [6] it was > 33.3 µM. Besides, the TGI was > 33.3 µM in assay [7], 8.37 µM in assay [8], > 33.3 µM in assay [9] and 1.39 µM in assay [10].

Take `CN1CCN(c2cc(C(=O)Nc3cc4cc(-c5cnn(C)c5)ccc4cn3)ccn2)CC1`: the GI50 in [1] is 0.0781 µM; in [2], 0.314 µM; in [3], 0.276 µM; in [4], 0.219 µM; in assay [5], 0.0666 µM; in assay [6], 0.155 µM. Besides, the GI50 in assay [7] is 0.0971 µM; in [8], 0.119 µM; in [9] it was 0.155 µM; in assay [10], 0.3 µM. Besides, the TGI came out at 0.838 µM in assay [1]; 31.4 µM in assay [2]; 4.57 µM in assay [3]; 3.75 µM in [4]; 2.46 µM in assay [5]; 0.331 µM in assay [6]. In addition, the TGI was 11.4 µM in assay [7], 7.91 µM in assay [8], > 39.2 µM in [9] and 10.4 µM in assay [10].

As for `COc1ccc(-c2nc(C(=O)c3ccccc3)n(CC(=O)c3ccccc3)c2-c2ccc(OC)cc2)cc1`, the GI50 in [1], in assay [2], in assay [3], in assay [4], in assay [5] and in [6] was > 100 µM each time. The GI50 in assay [7], in [8], in assay [9] and in assay [10] was > 100 µM in each case. Besides, the TGI in assay [1], in assay [2], in assay [3], in assay [4], in assay [5] and in assay [6] was > 100 µM each time. For the same molecule, the TGI in [7], in assay [8], in [9] and in assay [10] was > 100 µM throughout.

`COc1cc(Nc2ncc(F)c(Nc3ccc4c(n3)NC(=O)C(C)(C)O4)n2)cc(OC)c1OC`: the GI50 in assay [1] was 3.24 µM; in assay [2], > 10 µM; in [3] it was > 100 µM; in [4] it was 3.09 µM; in assay [5] it was 4.75 µM; in assay [6], > 100 µM. Further, the GI50 in [7] is > 10 µM; in [8], > 10 µM; in assay [9], 6.32 µM; in [10], 1.03 µM and 1.27 µM. Moreover, the TGI in [1] was > 10 µM; in assay [2], > 10 µM; in assay [3] it was > 100 µM; in assay [4] it was > 10 µM; in [5], > 10 µM; in [6], > 100 µM. Further, the TGI in assay [7] is > 10 µM; in assay [8], > 10 µM; in [9], > 10 µM; in assay [10], > 100 µM.

With `COC1=CC23CCCN2CCc2cc4c(cc2C3C1O)OCO4` (stereo not given), the TGI in [1] is > 100 µM; in assay [2], > 100 µM; in assay [3], > 100 µM; in assay [4], > 100 µM; in assay [5], > 100 µM; in assay [6] it was 54 µM. In addition, the TGI in assay [7] is > 100 µM; in assay [8] it was 83.8 µM; in assay [9], > 100 µM; in assay [10], > 100 µM.

Consider `N#CC(C#N)N=Nc1ccc(Br)cc1`, for which the GI50 in assay [1] was 4.18 µM; in [2], 2.42 µM; in assay [3], 8.04 µM; in assay [4], 1.69 µM; in [5], 3.22 µM; in assay [6] it was 5.13 µM. The GI50 in assay [7] was 4.02 µM; in assay [8] it was 1.7 µM; in assay [9] it was 1.53 µM; in assay [10] it was 3.79 µM. The TGI in [1] was found to be 31.5 µM; in [2], 17.7 µM; in [3] it was 33.1 µM; in [4], 7.04 µM; in assay [5], 15.9 µM; in [6], 34.1 µM. Besides, the TGI in [7] is > 51.1 µM; in assay [8] it was 4.38 µM; in assay [9], 10.7 µM; in assay [10] it was 14.1 µM.

Regarding `C[C@@H](CN1CC(=O)NC(=O)C1)N1CC(=O)NC(=O)C1`, the TGI in assay [1] worked out at 783 µM; in assay [2], 1450 µM; in assay [3], 1540 µM; in assay [4], 679 µM; in assay [5] it was 823 µM; in assay [6], 543 µM. Besides, the TGI in assay [7] came to 1430 µM; in [8], 1300 µM; in [9], 1840 µM; in [10], 1120 µM.

Consider `Nc1ncnc2c1c(-c1cccc(OCc3ccccc3)c1)cn2C1CC(CN2CCC2)C1` (stereo not given), for which the GI50 in [1] was 2.57 µM and 5.84 µM; in [2] it was 2.94 µM and 5.42 µM; in [3], 2.26 µM and 5.4 µM; in assay [4] it was 2.12 µM and 3.82 µM; in [5] it was 1.93 µM and 2.39 µM; in assay [6], 1.31 µM and 1.42 µM. The GI50 in [7] was 4.61 µM and 7.63 µM; in assay [8], 0.112 µM and 0.0969 µM; in [9], 2.58 µM and 2.97 µM; in assay [10], 1.92 µM and 2.14 µM. Also, the TGI is 6.91 µM and > 10 µM in [1]; 13.9 µM and > 10 µM in [2]; 10.6 µM and > 10 µM in assay [3]; 6.14 µM and > 10 µM in [4]; 12.6 µM and > 10 µM in [5]; 2.67 µM and 2.8 µM in assay [6]. For the same molecule, the TGI in assay [7] was 17.7 µM and > 10 µM; in assay [8], 2.08 µM and 2.04 µM; in assay [9], 7.99 µM and > 10 µM; in assay [10], 3.98 µM and 4.83 µM.

As for `COC(=O)c1c(O)c([N+](=O)[O-])cc2c1c1c(n2Cc2ccccc2)C(=O)c2ccccc2C1=O`, the GI50 is 5.9 µM in assay [1]; 15.4 µM in assay [2]; 11.2 µM in assay [3]; 19.9 µM in assay [4]; 34.6 µM in assay [5]; 3.63 µM in assay [6]. Also, the GI50 in assay [7] is 14.3 µM; in assay [8] it was 25.7 µM; in [9], 15.8 µM; in assay [10], 15.7 µM. In addition, the TGI in [1] is 51.5 µM; in assay [2], 53.9 µM; in [3], 23.2 µM; in [4] it was > 100 µM; in assay [5], > 100 µM; in assay [6], 14.7 µM. The TGI in [7] is 27.6 µM; in [8] it was > 100 µM; in assay [9], > 100 µM; in [10], 59.6 µM.

As to `CN1C(=O)[C@@H](NC(=O)[C@H](CCC(F)(F)F)[C@H](CCC(F)(F)F)C(N)=O)N=C(c2ccccc2)c2ccccc21`, the GI50 in assay [1] is 88.8 µM; in assay [2], 55.7 µM; in [3] it was > 100 µM; in assay [4] it was 43.7 µM; in assay [5], 89.5 µM; in assay [6], 36.1 µM. The GI50 in [7] is > 100 µM; in assay [8], 62.6 µM; in assay [9], 55 µM; in assay [10], > 100 µM. The TGI in assay [1], in assay [2], in [3], in assay [4], in assay [5] and in assay [6] was > 100 µM in each case. Moreover, the TGI in [7], in [8], in [9] and in [10] was > 100 µM each time.

Regarding `C=C1c2[nH]c3ccccc3c2C2C(CC)C1CCN2C` (stereo not given), the TGI in [1] is > 100 µM; in assay [2] it was > 100 µM; in [3], 37.8 µM; in assay [4], > 100 µM; in assay [5] it was > 100 µM; in [6] it was > 100 µM. Besides, the TGI in assay [7], in [8], in [9] and in assay [10] was > 100 µM throughout.
